What was measured:
CYP enzymes = conditions: in vitro studies; cited from earlier work
[1] = cited from earlier work
drug transporters = conditions: in vitro studies; cited from earlier work
[2] = Trial 2: plasma pharmacokinetics of single-dose furosemide and rosuvastatin; format: in vivo, healthy male and female subjects; conditions: single dose co-administered with oral semaglutide versus alone
[3] = co-administered with once-weekly subcutaneous semaglutide; cited from earlier work

SMILES: CC[C@H](C)[C@H](NC(=O)[C@H](Cc1ccccc1)NC(=O)[C@H](CCC(=O)O)NC(=O)[C@H](CCCCNC(=O)COCCOCCNC(=O)COCCOCCNC(=O)CC[C@H](NC(=O)CCCCCCCCCCCCCCCCC(=O)O)C(=O)O)NC(=O)[C@H](C)NC(=O)[C@H](C)NC(=O)[C@H](CCC(N)=O)NC(=O)CNC(=O)[C@H](CCC(=O)O)NC(=O)[C@H](CC(C)C)NC(=O)[C@H](Cc1ccc(O)cc1)NC(=O)[C@H](CO)NC(=O)[C@H](CO)NC(=O)[C@@H](NC(=O)[C@H](CC(=O)O)NC(=O)[C@H](CO)NC(=O)[C@@H](NC(=O)[C@H](Cc1ccccc1)NC(=O)[C@@H](NC(=O)CNC(=O)[C@H](CCC(=O)O)NC(=O)C(C)(C)NC(=O)[C@@H](N)Cc1cnc[nH]1)[C@@H](C)O)[C@@H](C)O)C(C)C)C(=O)N[C@@H](C)C(=O)N[C@@H](Cc1c[nH]c2ccccc12)C(=O)N[C@@H](CC(C)C)C(=O)N[C@H](C(=O)N[C@@H](CCCNC(=N)N)C(=O)NCC(=O)N[C@@H](CCCNC(=N)N)C(=O)NCC(=O)O)C(C)C [Semaglutide, semaglutide]
- potential to inhibit or induce CYP enzymes (CYP enzymes): very low potential
- elimination of intact semaglutide in urine ([1]; absorption, metabolism and excretion trial with subcutaneous semaglutide): 3%
- potential to inhibit drug transporters (drug transporters): very low potential

SMILES: NS(=O)(=O)c1cc(C(=O)O)c(NCc2ccco2)cc1Cl [Furosemide, furosemide]
- decrease in the maximum concentration [2]: 34%

SMILES: CC(C)c1nc(N(C)S(C)(=O)=O)nc(-c2ccc(F)cc2)c1/C=C/[C@@H](O)C[C@@H](O)CC(=O)O [Rosuvastatin, rosuvastatin]
- bioavailability, orally administered ([1]; oral administration): approximately 20%
- increase in maximum concentration [2]: 10%
- increase in total exposure [2]: 41%

SMILES: C#C[C@]1(O)CC[C@H]2[C@@H]3CCC4=CC(=O)CC[C@@H]4[C@H]3CC[C@@]21CC [levonorgestrel]
- increase in AUC [3]: 20%

From PMC8416862 (Clinical Pharmacokinetics, 2021)
